The assay has as its system LS513 KRAS G12V (colon). The assay can be described thus: MTT assay. In kind it is cell-based. As to conditions: Homo sapiens, LS-513, 72 h, Table 4; 3 days incubation; read-out: MTT assay IC50 KRAS mutant (Colon) LS513 KRAS G12V. On the procedure:
MTT assay is frequently used for the purpose of primary screening for the sensitivity of anticancer agents and to examine cytotoxicity. When cancer cells are treated with varying concentrations of any anticancer agent for a predetermined time to induce death of the cells and are then treated with MTT, and when the formation of formazan is measured, the concentration of the anticancer agent, at which about 50% of the cells survive, can be determined. This concentration value is called IC50. IC50 values differ between drugs, and thus can be characteristic of the drugs. Using this method, the effects of anticancer agents against cell proliferation can be quantitatively compared. Thus, in order to measure the cytotoxicity of samples, MTT assay was performed using CellTiter 96 Non-radioactive Cell Proliferation Assay Kit (Promega).
Cells in a cell suspension were counted with a hematocytometer, and then 200 μL of the cell suspension was added to each well of a 96 well plate at a desired concentration (cell amount determined depending on a cell line). After cell seeding, the cells were incubated in a CO2 incubator at 37° C. overnight. After one day of cell stabilization, the cells were treated with desired concentrations of the compounds. The cells were incubated in a CO2 incubator at 37° C. for 3 days, and then the sample was removed, and 200 μL of MTT solution was added to each well. After 2 hours of incubation, the MTT dilution was carefully shaken, and 200 μL of DMSO was added to each well, followed by shaking with a plate shaker for 60 minutes.
Background: Tetrazolium assays rely on reduction of a dye to a coloured formazan, in cell work by metabolically active cells.
On to `Cc1cn(-c2cc(C(=O)Nc3ccc(F)c(Nc4ncccc4-c4ncnc5[nH]cnc45)c3F)cc(C(F)(F)F)c2)cn1` [Example 2, N-(3-(3-(9H-purin-6-yl)pyridin-2-ylamino)-2,4-difluorophenyl)-3-(4-methyl-1H-imidazol-1-yl)-5-(trifluoromethyl)benzamide], for which the IC50 was greater than 10000 nM. `CCN1CCN(Cc2ccc(C(=O)Nc3ccc(F)c(Nc4ncccc4-c4ncnc5[nH]cnc45)c3F)cc2C(F)(F)F)CC1` [Example 3, N-(3-(3-(9H-purin-6-yl)pyridin-2-ylamino)-2,4-difluorophenyl)-4-((4-ethylpiperazin-1-yl)methyl)-3-(trifluoromethyl)benzamide]: the IC50 came to 4030 nM. The figure for `CC(C)C(=O)Nc1ccc(F)c(Nc2ncccc2-c2ncnc3[nH]cnc23)c1F` [Example 4, N-(3-(3-(9H-purin-6-yl)pyridin-2-ylamino)-2,4-difluorophenyl)isobutylamide] is greater than 10000 nM; for `O=C(Nc1ccc(F)c(Nc2ncccc2-c2ncnc3[nH]cnc23)c1F)c1cccs1` [Example 5, N-(3-(3-(9H-purin-6-yl)pyridin-2-ylamino)-2,4-difluorophenyl)thiophene-2-carboxamide] it is greater than 10000 nM. The figure for `O=C(Nc1ccc(F)c(Nc2ncccc2-c2ncnc3[nH]cnc23)c1F)c1ccco1` [Example 6, N-(3-(3-(9H-purin-6-yl)pyridine-2-ylamino)-2,4-difluorophenyl)furan-2-carboxamide] is greater than 10000 nM; for `O=C(Nc1ccc(F)c(Nc2ncccc2-c2ncnc3[nH]cnc23)c1F)c1ccno1` [Example 7, N-(3-(3-(9H-purin-6-yl)pyridin-2-ylamino)-2,4-difluorophenyl)isoxazole-5-carboxamide] it is greater than 10000 nM.

For the molecule `O=C(Nc1ccc(F)c(Nc2ncccc2-c2ncnc3[nH]cnc23)c1F)c1cncs1` [Example 8, N-(3-(3-(9H-purin-6-yl)pyridin-2-ylamino)-2,4-difluorophenyl)thiazole-5-carboxamide], the half-inhibitory concentration (IC50) was greater than 10000 nM. As for `CN1CCN(c2cc(C(=O)Nc3ccc(F)c(Nc4ncccc4-c4ncnc5[nH]cnc45)c3F)cc(C(F)(F)F)c2)CC1` [Example 10, N-(3-(3-(9H-purin-6-yl)pyridin-2-ylamino)-2,4-difluorophenyl)-3-(4-methylpiperazin-1-yl)-5-(trifluoromethyl)benzamide], the figure is 1170 nM.

With `O=C(Nc1ccc(F)c(Nc2ncccc2-c2ncnc3[nH]cnc23)c1F)c1cc(N2CCSCC2)cc(C(F)(F)F)c1` [Example 11, N-(3-(3-(9H-purin-6-yl)pyridin-2-ylamino)-2,4-difluorophenyl)-3-thiomorpholino-5-(trifluoromethyl)benzamide], the IC50 is 996 nM. With `O=C(Nc1ccc(F)c(Nc2ncccc2-c2ncnc3[nH]cnc23)c1F)c1cc(N2CCC(O)CC2)cc(C(F)(F)F)c1` [Example 12, N-(3-(3-(9H-purin-6-yl)pyridin-2-ylamino)-2,4-difluorophenyl)-3-(4-hydroxypiperidin-1-yl)-5-(trifluoromethyl)benzamide], the half-inhibitory concentration (IC50) was found to be 1020 nM. The figure for `CC1CCN(c2cc(C(=O)Nc3ccc(F)c(Nc4ncccc4-c4ncnc5[nH]cnc45)c3F)cc(C(F)(F)F)c2)CC1` [Example 13, N-(3-(3-(9H-purin-6-yl)pyridin-2-ylamino)-2,4-difluorophenyl)-3-(4-methylpiperidin-1-yl)-5-(trifluoromethyl)benzamide] is 1150 nM; for `O=C(Nc1ccc(F)c(Nc2ncccc2-c2ncnc3[nH]cnc23)c1F)c1ccc(N2CCSCC2)c(C(F)(F)F)c1` [Example 14, N-(3-(3-(9H-purin-6-yl)pyridin-2-ylamino)-2,4-difluorophenyl)-4-thiomorpholino-3-(trifluoromethyl)benzamide] it is 851 nM.

Consider `CC1CCN(c2ccc(C(=O)Nc3ccc(F)c(Nc4ncccc4-c4ncnc5[nH]cnc45)c3F)cc2C(F)(F)F)CC1` [Example 15, N-(3-(3-(9H-purin-6-yl)pyridin-2-ylamino)-2,4-difluorophenyl)-4-(4-methylpeperidin-1-yl)-3-(trifluoromethyl)benzamide], for which the IC50 was found to be 1670 nM. The figure for `O=C(Nc1ccc(F)c(Nc2ncccc2-c2ncnc3[nH]cnc23)c1F)c1ccc(Cl)c(C(F)(F)F)c1` [Example 16, N-(3-(3-(9H-purin-6-yl)pyridin-2-ylamino)-2,4-difluorophenyl)-4-chloro-3-(trifluoromethyl)benzamide] is 2780 nM. Regarding `O=C(Nc1ccc(F)c(Nc2ncccc2-c2ncnc3[nH]cnc23)c1F)c1ccc2c(c1)OCCO2` [Example 17, N-(3-(3-(9H-purin-6-yl)pyridin-2-ylamino)-2,4-difluorophenyl)-2,3-dihydrobenzo[b][1,4]dioxine-6-carboxamide], the IC50 came to 1160 nM. Take `O=C(Nc1ccc(F)c(Nc2ncccc2-c2ncnc3[nH]cnc23)c1F)c1cc(N2CCOCC2)cc(C(F)(F)F)c1` [Example 18, N-(3-(3-(9H-purin-6-yl)pyridin-2-ylamino)-2,4-difluorophenyl)-3-morpholino-5-(trifluoromethyl)benzamide]: the IC50 turned out to be 3020 nM. Regarding `O=C(Nc1ccc(F)c(Nc2ncccc2-c2ncnc3[nH]cnc23)c1F)c1ccc(N2CCCC2)c(C(F)(F)F)c1` [Example 19, N-(3-(3-(9H-purin-6-yl)pyridin-2-ylamino)-2,4-difluorophenyl)-4-(pyrrolidin-1-yl)-3-(trifluoromethyl)benzamide], the concentration for half-maximal inhibition (IC50) came to 939 nM. As for `N#CC1(c2cccc(C(=O)Nc3ccc(F)c(Nc4ncccc4-c4ncnc5[nH]cnc45)c3F)c2)CC1` [Example 20, N-(3-(3-(9H-purin-6-yl)pyridin-2-ylamino)-2,4-difluorophenyl)-3-(1-cyanocyclopropyl)benzamide], the figure is 2600 nM; as for `CC(C)(C(N)=O)c1cccc(C(=O)Nc2ccc(F)c(Nc3ncccc3-c3ncnc4[nH]cnc34)c2F)c1` [Example 22, N-(3-(3-(9H-purin-6-yl)pyridin-2-ylamino)-2,4-difluorophenyl)-3-(1-amino-2-methyl-1-oxopropan-2-yl)benzamide], greater than 10000 nM. Take `CC(C)(C#N)c1cccc(C(=O)Nc2cc(Nc3ncccc3-c3ncnc4[nH]cnc34)ccc2Cl)c1` [Example 24, N-(5-(3-(9H-purin-6-yl)pyridin-2-ylamino)-2-chlorophenyl)-3-(2-cyanopropan-2-yl)benzamide]: the IC50 came to 476 nM. Regarding `CC(C)(C#N)c1cccc(C(=O)Nc2c(F)ccc(Nc3ncccc3-c3ncnc4[nH]cnc34)c2F)c1` [Example 25, N-(3-(3-(9H-purin-6-yl)pyridin-2-ylamino)-2,6-difluorophenyl)-3-(2-cyanopropan-2-yl)benzamide], the IC50 is greater than 10000 nM. Regarding `O=C(Nc1ccc(F)c(Nc2ncccc2-c2ncnc3[nH]cnc23)c1F)c1ccccc1C(F)(F)F` [Example 26, N-(3-(3-(9H-purin-6-yl)pyridin-2-ylamino)-2,4-difluorophenyl)-2-(trifluoromethyl)benzamide], the IC50 was greater than 10000 nM. Take `O=C(Nc1ccc(F)c(Nc2ncccc2-c2ncnc3[nH]cnc23)c1F)c1ccc(C(F)(F)F)cc1` [Example 27, N-(3-(3-(9H-purin-6-yl)pyridin-2-ylamino)-2,4-difluorophenyl)-4-(trifluoromethyl)benzamide]: the IC50 was greater than 10000 nM. In the case of `O=C(Nc1ccc(F)c(Nc2ncccc2-c2ncnc3[nH]cnc23)c1F)c1cc(F)cc(C(F)(F)F)c1` [Example 28, N-(3-(3-(9H-purin-6-yl)pyridin-2-ylamino)-2,4-difluorophenyl)-3-fluoro-5-(trifluoromethyl)benzamide], the IC50 was found to be 958 nM. The figure for `CC(C)(C#N)c1cccc(C(=O)Nc2cccc(Nc3ncccc3-c3ncnc4[nH]cnc34)c2F)c1` [Example 29, N-(3-(3-(9H-purin-6-yl)pyridin-2-ylamino)-2-fluorophenyl)-3-(2-cyanopropan-2-yl)benzamide] is 978 nM; for `O=C(Nc1cc(Nc2ncccc2-c2ncnc3[nH]cnc23)c(F)cc1F)c1cccc(C(F)(F)F)c1` [Example 31, N-(5-(3-(9H-Purin-6-Yl)Pyridin-2-Ylamino)-2,4-Difluorophenyl)-3-(Trifluoromethyl)Benzamide] it is greater than 10000 nM; for `CC(C)(C#N)c1cccc(C(=O)Nc2cc(Nc3ncccc3-c3ncnc4[nH]cnc34)c(F)cc2F)c1` [Example 32, N-(5-(3-(9H-Purin-6-Yl)Pyridin-2-Ylamino)-2,4-Difluorophenyl)-3-(2-Cyanopropan-2-Yl)Benzamide] it is 173 nM. For `O=C(Nc1ccc(F)c(Nc2ncccc2-c2ncnc3[nH]cnc23)c1F)c1cccc([N+](=O)[O-])c1` [Example 34, N-(3-(3-(9H-Purin-6-Yl)Pyridin-2-Ylamino)-2,4-Difluorophenyl)-3-Nitrobenzamide], the IC50 was greater than 10000 nM.

`COc1cccc(C(=O)Nc2ccc(F)c(Nc3ncccc3-c3ncnc4[nH]cnc34)c2F)c1` [Example 35, N-(3-(3-(9H-Purin-6-Yl)Pyridin-2-Ylamino)-2,4-Difluorophenyl)-3-Methoxybenzamide]: the half-maximal inhibitory concentration (IC50) was greater than 10000 nM. Take `N#Cc1cccc(C(=O)Nc2ccc(F)c(Nc3ncccc3-c3ncnc4[nH]cnc34)c2F)c1` [Example 37, N-(3-(3-(9H-Purin-6-Yl)Pyridin-2-Ylamino)-2,4-Difluorophenyl)-3-Cyanobenzamide]: the IC50 is greater than 10000 nM.

A word on the IC50: it is the concentration needed to halve the response being measured.
